Source: patent EP4792822A1, “USE OF PEPTIDE AMIDE COMPOUND IN PREPARATION OF DRUG FOR […] AND VOMITING” (Haisco Pharmaceutical Group Co., Ltd., priority 2023, dated 2025)

Tested on: subjects undergoing elective laparoscopic abdominal surgery under general anaesthesia
Assay: Example 1: phase III, placebo-controlled clinical study of compound 1 injection for postoperative analgesia (morphine rescue; nausea and vomiting recorded)
Format: in vivo, patients
Description: This study was a multicentre, randomised, double-blind, placebo-controlled phase III clinical study conducted in China to evaluate the efficacy and safety of compound 1 injection for postoperative analgesia in subjects undergoing elective laparoscopic abdominal surgery under general anaesthesia. […] subjects undergoing elective laparoscopic abdominal surgery under general anaesthesia were enrolled and randomised to two groups: the compound 1 group (136 subjects) and the placebo group (135 subjects). All subjects received an intravenous injection of compound 1 injection or placebo injection within 5 min after the completion of the first NRS score assessment, and the end time of the first postoperative administration was recorded as 0 min. At 8 h and 16 h after the end of the first administration, within a time window of ±15 min, a single corresponding dose of the compound 1 injection or placebo injection was administered intravenously to the subjects.
Resting NRS score assessments were performed in subjects within 5 min before the first postoperative administration, and at 15 min ± 5 min, 30 min ± 5 min, 1 h ± 5 min, 2 h ± 15 min, 4 h ± 15 min, 8 h (within 30 min before the second postoperative administration), 12 h ± 30 min, 16 h (within 30 min before the last postoperative administration), 20 h ± 30 min, and 24 h ± 1 h after the first postoperative administration. The NRS score for resting pain refers to the NRS score assessed when the subject is at rest (e.g., sitting or lying still). If the subject was unconscious at a scheduled NRS assessment time point, the score was recorded as follows: if the previous NRS score was ≥ 2, the current NRS score was recorded as 2; if the previous NRS score was < 2, the current NRS score was recorded as the previous score. Meanwhile, it was documented that the subject was unconscious at the time of assessment.
A morphine injection was administered via intravenous injection for rescue treatment if the resting pain NRS score was ≥ 4 at any pain assessment time point after the first postoperative administration, or if the subject complained of pain at any time point and the resting pain NRS score was ≥ 4. It was recommended that the time from the subject's NRS assessment to actual administration of morphine injection be ≤ 30 min; an initial intravenous dose of 3 mg be administered, followed by additional doses as needed. It was also recommended that the interval between two rescue treatments be ≥ 2 h and that the interval between rescue medication and study drug administration be ≥ 1 h.
Prophylactic antiemetic treatment was prohibited during the study. After the first postoperative administration, the investigator administered antiemetic agents based on the occurrence of nausea and vomiting in the subject, and the dosage of the antiemetic agents was recorded. Tropisetron was the preferred antiemetic agent (an initial intravenous dose of 2.5 mg, followed by additional doses as needed, not to exceed 10 mg within 24 h). If tropisetron was insufficiently effective, other agents were used by the investigator in accordance with routine clinical practice.
Abdominal surgery, female sex, non-smoking status, and postoperative opioid use are known as risk factors leading to postoperation nausea and vomiting (PONV). Two studies of compound 1 injection for postoperative analgesia after abdominal surgery were completed. Morphine (Example 1) and flurbiprofen axetil (Example 2) were used as rescue analgesic agents in the two studies, respectively, and prophylactic antiemetic treatment was prohibited during the studies. The study results were summarised as follows.

[1] = Example 1, No morphine use (no rescue analgesia), N = 91
[2] = Example 1, No morphine use, listed as compound 1
[3] = Example 1, Overall, safety analysis set, N = 136
[4] = Example 1, Overall, safety analysis set, N = 136, listed as compound 1
[5] = within 0-12 h and 0-24 h after the first postoperative administration, compared with placebo
[6] = within 0-24 h after the first administration, compared with placebo

For `CC(=O)N1CC2(CCN(C(=O)[C@@H](CCCCN)NC(=O)[C@@H](CC(C)C)NC(=O)[C@@H](Cc3ccccc3)NC(=O)[C@H](N)Cc3ccccc3)CC2)C1` [Compound 1, (2R)-N-[(1R)-1-(2-acetyl-2,7-diazaspiro[3.5]nonane-7-carbonyl)-5-amino-pentyl]-2-[[(2R)-2-[[(2R)-2-amino-3-phenyl-propionyl]amino]-3-phenylpropionyl]amino]-4-methyl-pentanamide], the “overall safety and tolerability” value (Example 1) was “good overall safety and tolerability”, the “Change in incidence of nausea relative to placebo” value (Example 1, No morphine use) was 25.7% reduction and the “Change in incidence of vomiting relative to placebo” value (Example 1, No morphine use) was 20.1% reduction. The “Nausea (incidence)” value [1] was 16.5%, the “Vomiting (incidence)” value [1] was 18.7% and the “Change in incidence of nausea relative to placebo” value [2] was 25.7 % reduction. For the same compound, the “Change in incidence of vomiting relative to placebo” value [2] was 20.1 % reduction, the “Change in incidence of nausea relative to placebo” value (Example 1, Overall) was 35.8% reduction and the “Change in incidence of vomiting relative to placebo” value (Example 1, Overall) was 52.8% reduction. The “Nausea (incidence)” value [3] was 17.6%, the “Vomiting (incidence)” value [3] was 15.4% and the “Nausea (incidence)” value [4] was 17.6%. The “Vomiting (incidence)” value [4] was 15.4%, the “PID at each time point” value (compared with placebo) was “significantly lower than those in the placebo group” and the “SPID0-12 h after the first postoperative administration” value (compared with placebo) was “significantly lower than those in the placebo group”. The “SPID0-24 h after the first postoperative administration” value (compared with placebo) was “superior to that in the placebo group”, the duration of analgesia (compared with placebo) was “significantly longer than those in the placebo group” and the “incidences of adverse reactions” value (compared with placebo) was “comparable to those in the placebo group”. The “incidences of adverse reactions (including nausea and vomiting)” value (compared with placebo) was “significantly lower than those in the placebo group”, the “incidences of the main TEAEs (including nausea and vomiting)” value (compared with placebo) was “significantly lower than those in the placebo group” and the “subject and investigator satisfaction scores for postoperative analgesia” value (compared with placebo) was “significantly higher than those in the placebo group”. For the same compound, the “time to the first use of rescue analgesic agents” value (compared with placebo) was “significantly longer than those in the placebo group”, the “effect on PONV in patients after abdominal surgery” value (summary of both Phase III studies (Example 1)) was “preventive and/or alleviating effect on PONV” and the “mean cumulative dosage of rescue analgesic agents” value [5] was “significantly lower than those in the placebo group”. For the same compound, the “proportion of subjects with NRS scores ≤ 3” value [5] was “significantly higher than those in the placebo group”, the “mean cumulative dosage of antiemetic agents” value [6] was “significantly lower than those in the placebo group” and the “proportion of subjects using antiemetic agents” value [6] was “significantly lower than those in the placebo group”. For the same compound, the “proportion of subjects using rescue analgesic agents” value (within 0-24 h after the first postoperative administration, compared with placebo) was “significantly lower than those in the placebo group”.
